Source: US8741836B2, “Polypeptides” (Novo Nordisk A/S, priority 2011, dated 2014)
Starred links: 1 amine or outer side, 2 acyl side, 3 side chain; linkers in the order of their positions; H or OH if unused. Positions of bridges follow the written chain, without caps; N, C: chain ends. Non-standard residues stand in square brackets, D forms with d. Residues, ends and D or L forms follow the SMILES beside them. Groups on a side chain read outwards from the residue. *: point of attachment. C20 diacid = O=C(O)CCCCCCCCCCCCCCCCCCC(=O)*; C18 diacid = O=C(O)CCCCCCCCCCCCCCCCC(=O)*; γGlu = O=C(O)[C@H](CCC(=O)[*:2])N[*:1]; AEEA = NCCOCCOCC(=O)O

Assay: Assay (III) ThT fibrillation assay for physical stability
Format: physicochemical
Conditions: for ThT pH 4.0 lag time: pH 4.0, ThT fibrillation assay
Procedure, shortened: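 Freshly prepared, pH-adjusted formulations with 1 μM ThT incubated at 37 °C under 960 rpm orbital shaking (1 mm), fluorescence (ex 444, em 485 nm) read every 20 min. […] Peptide content before and after measured by reverse-phase HPLC against pramlintide standard.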

Row | ThT pH 4.0 lag time [h] | ThT pH 4.0 lag time (physical stability in fibrillogenesis assay) [h] | Compound
1 | >45 | – | CC[C@H](C)[C@H](NC(=O)[C@@H]1CCCN1C(=O)CNC(=O)[C@H](Cc1ccccc1)NC(=O)[C@H](CC(N)=O)NC(=O)[C@H](CC(N)=O)NC(=O)[C@H](CO)NC(=O)[C@H](CO)NC(=O)[C@H](Cc1c[nH]cn1)NC(=O)[C@H](Cc1c[nH]cn1)NC(=O)[C@H](CC(C)C)NC(=O)[C@H](Cc1ccccc1)NC(=O)[C@H](CCC(=O)O)NC(=O)[C@H](C)NC(=O)[C@H](CC(C)C)NC(=O)[C@H](CCCNC(=N)N)NC(=O)[C@H](CCC(N)=O)NC(=O)[C@@H](NC(=O)[C@H](C)NC(=O)[C@@H]1CSSC[C@H](NC(=O)[C@H](CCCCN)NC(=O)CC[C@H](NC(=O)CCCCCCCCCCCCCCCCCCC(=O)O)C(=O)O)C(=O)N[C@@H](CC(N)=O)C(=O)N[C@@H]([C@@H](C)O)C(=O)N[C@@H](C)C(=O)N[C@@H]([C@@H](C)O)C(=O)N1)[C@@H](C)O)C(=O)N[C@@H](CC(C)C)C(=O)N1CCC[C@H]1C(=O)N1CCC[C@H]1C(=O)N[C@H](C(=O)N[C@@H](CC(N)=O)C(=O)N[C@@H](Cc1c[nH]cn1)C(=O)NCC(=O)N[C@@H](CO)C(=O)N[C@@H](CC(N)=O)C(=O)N[C@H](C(=O)N[C@@H](Cc1ccc(O)cc1)C(N)=O)[C@@H](C)O)[C@@H](C)O [Example 116, N-alpha-[(S)-4-Carboxy-4-(19-carboxynonadecanoylamino)butyryl]-[Glu14,His17,His32]-pramlintide] ({C20 diacid-γGlu}-KCNTATCATQRLAEFLHHSSNNFGPILPPTNHGSNTY-NH2; disulfide 2-7)
2 | >45 | – | CC[C@H](C)[C@H](NC(=O)[C@@H]1CCCN1C(=O)CNC(=O)[C@H](Cc1ccccc1)NC(=O)[C@H](CC(N)=O)NC(=O)[C@H](CC(N)=O)NC(=O)[C@H](CO)NC(=O)[C@H](CO)NC(=O)[C@H](Cc1c[nH]cn1)NC(=O)[C@H](Cc1c[nH]cn1)NC(=O)[C@H](CC(C)C)NC(=O)[C@H](Cc1ccccc1)NC(=O)[C@H](CCC(=O)O)NC(=O)[C@H](C)NC(=O)[C@H](CC(C)C)NC(=O)[C@H](CCCNC(=N)N)NC(=O)[C@H](CCC(N)=O)NC(=O)[C@@H](NC(=O)[C@H](C)NC(=O)[C@@H]1CSSC[C@H](NC(=O)[C@H](CCCCN)NC(=O)[C@H](CO)NC(=O)CC[C@H](NC(=O)CCCCCCCCCCCCCCCCCCC(=O)O)C(=O)O)C(=O)N[C@@H](CC(N)=O)C(=O)N[C@@H]([C@@H](C)O)C(=O)N[C@@H](C)C(=O)N[C@@H]([C@@H](C)O)C(=O)N1)[C@@H](C)O)C(=O)N[C@@H](CC(C)C)C(=O)N1CCC[C@H]1C(=O)N1CCC[C@H]1C(=O)N[C@H](C(=O)N[C@@H](CC(N)=O)C(=O)N[C@H](C(=O)NCC(=O)N[C@@H](CO)C(=O)N[C@@H](Cc1c[nH]cn1)C(=O)N[C@H](C(=O)N[C@@H](Cc1ccc(O)cc1)C(N)=O)[C@@H](C)O)C(C)C)[C@@H](C)O [Example 85, N-alpha-[(S)-4-Carboxy-4-(19-carboxynonadecanoylamino)butyryl]-Ser-[Glu14,His17,His35]-pramlintide] ({C20 diacid-γGlu}-SKCNTATCATQRLAEFLHHSSNNFGPILPPTNVGSHTY-NH2; disulfide 3-8)
3 | >45 | >45 | CC[C@H](C)[C@H](NC(=O)[C@@H]1CCCN1C(=O)CNC(=O)[C@H](Cc1ccccc1)NC(=O)[C@H](CC(N)=O)NC(=O)[C@H](CO)NC(=O)[C@H](CO)NC(=O)[C@H](CO)NC(=O)[C@H](Cc1c[nH]cn1)NC(=O)[C@H](CCCCNC(=O)COCCOCCNC(=O)COCCOCCNC(=O)CC[C@H](NC(=O)CCCCCCCCCCCCCCCCC(=O)O)C(=O)O)NC(=O)[C@H](CC(C)C)NC(=O)[C@H](Cc1ccccc1)NC(=O)[C@H](CCC(=O)O)NC(=O)[C@H](C)NC(=O)[C@H](CC(C)C)NC(=O)[C@H](CCCNC(=N)N)NC(=O)[C@H](CCC(N)=O)NC(=O)[C@@H](NC(=O)[C@H](C)NC(=O)[C@@H]1CSSC[C@H](NC(=O)[C@@H](N)CCCCN)C(=O)N[C@@H](CC(N)=O)C(=O)N[C@@H]([C@@H](C)O)C(=O)N[C@@H](C)C(=O)N[C@@H]([C@@H](C)O)C(=O)N1)[C@@H](C)O)C(=O)N[C@@H](CC(C)C)C(=O)N1CCC[C@H]1C(=O)N1CCC[C@H]1C(=O)N[C@H](C(=O)N[C@@H](CC(N)=O)C(=O)N[C@H](C(=O)NCC(=O)N[C@@H](CO)C(=O)N[C@@H](CCC(=O)O)C(=O)N[C@H](C(=O)N[C@@H](Cc1ccc(O)cc1)C(N)=O)[C@@H](C)O)C(C)C)[C@@H](C)O [Example 83, N-epsilon17-[2-(2-{2-[2-(2-{2-[(S)-4-Carboxy-4-(17-carboxyheptadecanoylamino)butyrylamino]ethoxy}ethoxy)acetylamino]ethoxy}ethoxy)acetyl]-[Glu14,Lys17,Ser21,Glu35]-pramlintide] (H-KCNTATCATQRLAEFLK([AEEA-AEEA-γGlu-C18 diacid])HSSSNFGPILPPTNVGSETY-NH2; disulfide 2-7 (inferred); N-terminus assumed)
4 | – | >45 | CC[C@H](C)[C@H](NC(=O)[C@@H]1CCCN1C(=O)CNC(=O)[C@H](Cc1ccccc1)NC(=O)[C@H](CC(N)=O)NC(=O)[C@H](C)NC(=O)[C@H](CO)NC(=O)[C@H](CO)NC(=O)[C@H](CCCNC(=N)N)NC(=O)[C@H](Cc1cnc[nH]1)NC(=O)[C@H](CC(C)C)NC(=O)[C@H](Cc1ccccc1)NC(=O)[C@H](CCC(=O)O)NC(=O)[C@H](C)NC(=O)[C@H](CC(C)C)NC(=O)[C@H](CCCNC(=N)N)NC(=O)[C@H](CCC(N)=O)NC(=O)[C@@H](NC(=O)[C@H](C)NC(=O)[C@@H]1CSSC[C@H](NC(=O)[C@H](CCCCN)NC(=O)[C@@H](CCCNC(=N)N)NC(=O)[C@@H](CCCNC(=N)N)NC(=O)COCCOCCNC(=O)COCCOCCNC(=O)CC[C@H](NC(=O)CCCCCCCCCCCCCCCCCCC(=O)O)C(=O)O)C(=O)N[C@@H](CC(N)=O)C(=O)N[C@@H]([C@@H](C)O)C(=O)N[C@@H](C)C(=O)N[C@@H]([C@@H](C)O)C(=O)N1)[C@@H](C)O)C(=O)N[C@@H](CC(C)C)C(=O)N1CCC[C@H]1C(=O)N1CCC[C@H]1C(=O)N[C@H](C(=O)N[C@@H](CC(N)=O)C(=O)N[C@H](C(=O)NCC(=O)N[C@@H](CO)C(=O)N[C@@H](CO)C(=O)N[C@H](C(=O)N[C@@H](Cc1ccc(O)cc1)C(N)=O)[C@@H](C)O)C(C)C)[C@@H](C)O [Example 38, N-alpha-[2-(2-{2-[2-(2-{2-[(S)-4-Carboxy-4-(19-carboxyheptadecanoylamino)butyrylamino]ethoxy}ethoxy)acetylamino]ethoxy}ethoxy)acetyl]-D-Arg-D-Arg-[Glu14,His17,Arg18,Ala21,Ser35]-pramlintide] ({C20 diacid-γGlu-AEEA-AEEA}-[dR][dR]KCNTATCATQRLAEFLHRSSANFGPILPPTNVGSSTY-NH2; disulfide 4-9)
